Tested on: iPSC-derived cortical neurons
Assay type: cell-based
[1] = responders vs non-responders after 10 μM Bupropion, NS

## CC(NC(C)(C)C)C(=O)c1cccc(Cl)c1 (stereo not drawn) [Bupropion, 3-Chloro-N-tert-butyl-β-keto-α-methylphenethylamin]
10 μm Bupropion, p<0.01, Table 4
  number of genes significantly downregulated in responders as compared to non-responders: 174 genes
10 μm Bupropion, p<0.01, over 60,000 genes probed
  number of genes significantly upregulated in responders as compared to non-responders after treatment: 69 genes
[1]
  logFC ABLIM2: −1.305
  logFC ABLIM3: −2.05
  logFC ACTL6B: −1.577
  logFC ADCY1: −1.308
  logFC ADCY5: −1.299
  logFC ADCYAP1R1: −1.154
  logFC ADD2: −0.7958
  logFC ADGRB3: −1.496
  logFC ADRA1B: −2.202
  logFC AGAP2: −1.343
  logFC AK5: −1.456
  logFC AKAP6: −1.215
  logFC AKR1C2: −1.478
  logFC ALPK3: −1.224
  logFC AMER3: −1.722
  logFC ANK1: −1.875
  logFC ANK2: −0.959
  logFC ANK3: −1.262
  logFC ANKH: −0.9269
  logFC ANKRD30BL: −2.897
  logFC ANKRD53: −1.517
  logFC ANKRD55: −1.879
  logFC AP3B2: −1.482
  logFC APBB1: −0.8199
  logFC APC: −0.916
  logFC APLP1: −1.076
  logFC ARHGAP20: −2.01
  logFC ARHGAP26: −0.7629
  logFC ARHGAP33: −0.9502
  logFC ARHGAP36: −2.569
  logFC ARPP21: −3.247
  logFC ASB8: −0.7127
  logFC ASIC4: −1.72
  logFC ATAT1: −0.8189
  logFC ATCAY: −1.047
  logFC ATP1A3: −1.336
  logFC ATP2B3: −1.771
  logFC ATP6V0A1: −0.6012
  logFC ATP6V0E2: −1.011
  logFC B3GALNT1: −2.052
  logFC B3GALT2: −1.685
  logFC BASP1: −0.8607
  logFC BINI: −0.8522
  logFC BMERB1: −0.8373
  logFC BRINP1: −1.623
  logFC BRSK1: −0.753
  logFC BSN: −1.599
  logFC C1orf216: −1.465
  logFC C4orf50: −1.94
  logFC CA10: −2.576
  logFC CACNA1B: −1.253
  logFC CACNB1: −1.261
  logFC CACNB3: −0.6878
  logFC CACNG2: −1.666
  logFC CACNG3: −1.337
  logFC CADM3: −1.659
  logFC CADM4: −0.6745
  logFC CALB2: −1.647
  logFC CAMK1D: −0.9513
  logFC CAMK2B: −1.689
  logFC CAMSAP3: −0.8932
  logFC CASKIN1: −0.9781
  logFC CCDC141: −2.886
  logFC CCDC184: −1.385
  logFC CDH7: −1.611
  logFC CDH12: −2.03
  logFC CDK5R1: −1.375
  logFC CELF3: −1.26
  logFC CELF4: −1.812
  logFC CEP170B: −0.6703
  logFC CEP295NL: −1.321
  logFC CHGA: −1.543
  logFC CHGB: −1.246
  logFC CHRFAM7A: −1.645
  logFC CHRM2: −2.12
  logFC CHRNA1: −2.49
  logFC CHRNA4: −1.718
  logFC CHRNB2: −1.815
  logFC CHST1: −1.711
  logFC CLASP2: −0.7536
  logFC CLCN4: −0.8168
  logFC CLDN5: −1.453
  logFC CLIP2: −0.856
  logFC CLSTN3: −0.8161
  logFC CMIP: −0.6391
  logFC CNTN1: −1.722
  logFC CORO2B: −1.199
  logFC CPLX1: −1.467
  logFC CPLX2: −1.647
  logFC CRB1: −1.691
  logFC CREG2: −1.282
  logFC CRMP1: −1.121
  logFC CSMD1: −1.31
  logFC CTNND2: −1.034
  logFC CXCL11: −2.544
  logFC CYGB: −1.896
  logFC DAAM1: −0.6945
  logFC DBNDD1: −0.8117
  logFC DCLK2: −1.477
  logFC DES: −2.44
  logFC DIRAS1: −1.66
  logFC DIRAS2: −1.952
  logFC DISP2: −1.757
  logFC DKK3: −1.052
  logFC DMTN: −1.522
  logFC DOK5: −1.085
  logFC DPF1: −1.34
  logFC DPP10: −1.13
  logFC DPYSL4: −1.082
  logFC DRD2: −1.595
  logFC DSCAML1: −1.404
  logFC DTX1: −1.204
  logFC EBF1: −1.335
  logFC ELAVL4: −1.326
  logFC ELFN2: −1.113
  logFC EPB41L1: −0.9134
  logFC EPHA8: −1.345
  logFC ERAP2: −2.32
  logFC ETFB: −1.045
  logFC EVI5L: −0.9714
  logFC EYA1: −0.8128
  logFC F7: −1.608
  logFC FAIM2: −1.923
  logFC FAM131B: −0.8962
  logFC FAM219A: −0.8506
  logFC FAM222A: −1.164
  logFC FAR2: −1.384
  logFC FAXC: −0.9556
  logFC FBXO41: −0.97
  logFC FGF14: −1.149
  logFC FMN2: −1.148
  logFC FRMD5: −0.7871
  logFC FRMPD4: −2.13
  logFC FSTL4: −1.8
  logFC FSTL5: −1.624
  logFC GABBR2: −2.251
  logFC GABRG3: −1.687
  logFC GABRR1: −2.904
  logFC GAD2: −1.46
  logFC GALNT9: −1.69
  logFC GALNTL6: −1.861
  logFC GAP43: −1.304
  logFC GCK: −1.587
  logFC GDPD5: −1.245
  logFC GFOD1: −1.12
  logFC GLRA1: −2.174
  logFC GLRA2: −1.929
  logFC GLRA3: −3.119
  logFC GMIP: −0.765
  logFC GNAO1: −1.181
  logFC GOLGA7B: −1.854
  logFC GPR26: −2.221
  logFC GPR139: −1.695
  logFC GPR158: −1.27
  logFC GPRIN1: −1.521
  logFC GPSM1: −0.733
  logFC GRIA4: −1.263
  logFC GRIK2: −1.1
  logFC GRIN1: −1.919
  logFC HECW1: −1.709
  logFC HERC1: −0.5953
  logFC HID1: −0.975
  logFC HK1: −0.5528
  logFC HRH3: −1.315
  logFC HTR5A: −2.98
  logFC IFI27: −1.463
  logFC IFIT5: −0.8218
  logFC IGLON5: −0.9869
  logFC IGSF8: −0.6614
  logFC INA: −1.425
  logFC INSM1: −1.183
  logFC ISL1: −2.075
  logFC ISLR2: −2.565
  logFC JAKMIP1: −1.737
  logFC KBTBD11: −1.03
  logFC KCNA2: −1.235
  logFC KCNC2: −2.213
  logFC KCNH6: −1.966
  logFC KCNIP1: −1.502
  logFC KCNJ3: −1.979
  logFC KCNJ6: −1.811
  logFC KCNJ9: −1.383
  logFC KCNK3: −2.03
  logFC KCNQ2: −1.053
  logFC KCNS2: −2.976
  logFC KIAA0513: −1.005
  logFC KIAA1755: −1.809
  logFC KIF3C: −1.295
  logFC KIF5A: −1.285
  logFC KIFAP3: −0.9071
  logFC KIRREL3: −1.338
  logFC KLHL1: −2.102
  logFC LG14: −0.9845
  logFC LGI2: −1.253
  logFC LGI3: −2.434
  logFC LHFPL4: −1.28
  logFC LMTK3: −0.9148
  logFC LRATD1: −1.429
  logFC LRFN2: −1.645
  logFC LRRC4C: −1.523
  logFC LRRC7: −1.643
  logFC LRRC55: −1.342
  logFC LRRTM2: −1.587
  logFC LSM11: −0.7282
  logFC LZTS1: −1.332
  logFC MAP1A: −1.103
  logFC MAPK8IP2: −1.461
  logFC MAPRE2: −0.7432
  logFC MAST1: −1.276
  logFC MFNG: −1.262
  logFC MFSD6: −1.112
  logFC MKRN3: −1.448
  logFC MPO: −2.163
  logFC MPP3: −1.029
  logFC MRAS: −0.5698
  logFC MTMR7: −1.1
  logFC MTSS1: −0.9406
  logFC MX1: −1.291
  logFC MXRA7: −0.6421
  logFC MYL1: −4.411
  logFC NACAD: −0.8329
  logFC NAP1L5: −0.871
  logFC NCAM1: −1.37
  logFC NCAM2: −1.147
  logFC NDRG4: −1.32
  logFC NECAP1: −0.6044
  logFC NEGR1: −1.829
  logFC NFASC: −1.15
  logFC NHLH1: −1.305
  logFC NHLH2: −2.363
  logFC NKAIN4: −0.8753
  logFC NMNAT2: −1.044
  logFC NOVAI: −0.9754
  logFC NPAS3: −1.402
  logFC NPM2: −1.674
  logFC NR1I3: −1.278
  logFC NRSN1: −1.718
  logFC NRXN1: −1.372
  logFC NSG1: −1.704
  logFC NSG2: −1.942
  logFC NTM: −1.35
  logFC NTNG1: −1.193
  logFC NWD2: −2.251
  logFC NXPH4: −1.744
  logFC NYAP1: −0.9844
  logFC NYAP2: −2.578
  logFC OLFM2: −1.002
  logFC OTUD7A: −1.036
